Patent publication US20140187784A1, “RADIOACTIVE QUINOLINONE DERIVATIVE AND PHARMACEUTICAL DRUG COMPRISING THE SAME” (Nihon Medi-Physics Co., Ltd., priority 2012, published 2014)

Experiment: Pharmacokinetic and distribution experiment (radioactivity in blood and excised organs after tail vein injection)
Format: in vivo
Details: ddy mice; for Adrenal gland/Blood ratio / Radioactivity Distribution, Blood / Radioactivity Distribution, Femur / Radioactivity Distribution, Heart / Radioactivity Distribution, Large intestine / Radioactivity Distribution, Lung / Radioactivity Distribution, Small intestine / Radioactivity Distribution, Spleen / Radioactivity Distribution, Stomach / Adrenal gland/Kidney ratio / Radioactivity Distribution, Adrenal gland / Radioactivity Distribution, Kidney / Radioactivity Distribution, Liver / Radioactivity Distribution, Pancreas / Adrenal gland/Liver ratio: tail vein injection; for Adrenal gland/Blood ratio / Radioactivity Distribution, Blood / Radioactivity Distribution, Femur / Radioactivity Distribution, Heart / Radioactivity Distribution, Large intestine / Radioactivity Distribution, Lung / Radioactivity Distribution, Small intestine / Radioactivity Distribution, Spleen / Radioactivity Distribution, Stomach: 14.8 kBq (4 μCi); for Adrenal gland/Kidney ratio / Radioactivity Distribution, Adrenal gland / Radioactivity Distribution, Kidney / Radioactivity Distribution, Liver / Radioactivity Distribution, Pancreas: 14.8 kBq
Procedure: (§1) The HPLC fraction of [^125I]PAY15 obtained in Example 3 was concentrated and then diluted with saline. The resulting solution was used in administration. 100 μL of the solution (18.5 kBq (0.5 μCi)) was injected to the tail vein of each of five ddy mice (6 weeks old). Five minutes later, each mouse was decapitated, and blood was collected. Then, organs (adrenal gland, pancreas, heart, lung, stomach, small intestine, large intestine, liver, spleen, kidney, and thyroid gland) were excised. After measurement of their weights, the radioactivities of blood and each excised organ were measured. Also, the point in time when each mouse was decapitated was changed to 5, 15, 30, 60, and 120 minutes later to perform similar operation.
The HPLC fraction of [^125I]PAY21 obtained in Example 6 was concentrated and then diluted with saline. The resulting solution was used in administration to perform the same operation as in Evaluation 1.
as §1, with “[^18F]PAY27 obtained” for “The HPLC fraction of [^125I]PAY15 obtained”, “Example 10” for “Example 3”, “was” for “was concentrated and then”, “solution (14.8” for “solution (18.5”, “kBq (4” for “kBq (0.5”, “and thigh bone)” for “and thyroid gland)”
as §1, with “[^18F]PAY54 obtained” for “The HPLC fraction of [^125I]PAY15 obtained”, “Example 13” for “Example 3”, “was” for “was concentrated and then”, “solution (14.8” for “solution (18.5”, “kBq (4” for “kBq (0.5”, “and thigh bone)” for “and thyroid gland)”

O=C1CCc2cc(-c3cncc(OCC[18F])c3)cc3c2N1CC3 [[^18F]PAY54, 8-(5-(2-[^18F]fluoroethyloxy)pyridin-3-yl)-1,2,5,6-tetrahydro-4H-pyrrolo[3,2,1-ij]quinolin-4-one]
radioactivity accumulation in the adrenal gland compared with blood and the kidney (5 minutes after administration): high radioactivity accumulation
Adrenal gland/Blood ratio (5 min): 1.55 ± 0.43
Radioactivity Distribution, Blood (5 min): 4.5 ± 0.2 % dose/g
Radioactivity Distribution, Femur (5 min): 1.9 ± 0.2 % dose/g
Radioactivity Distribution, Heart (5 min): 4.5 ± 0.5 % dose/g
Radioactivity Distribution, Large intestine (5 min): 3.5 ± 0.3 % dose/g
Radioactivity Distribution, Lung (5 min): 4.6 ± 0.2 % dose/g
Radioactivity Distribution, Small intestine (5 min): 5.6 ± 0.3 % dose/g
Radioactivity Distribution, Spleen (5 min): 3.6 ± 0.2 % dose/g
Radioactivity Distribution, Stomach (5 min): 4.6 ± 1.5 % dose/g
Adrenal gland/Blood ratio (15 min): 0.86 ± 0.15
Radioactivity Distribution, Blood (15 min): 4.5 ± 0.2 % dose/g
Radioactivity Distribution, Femur (15 min): 2.3 ± 0.1 % dose/g
Radioactivity Distribution, Heart (15 min): 3.8 ± 0.2 % dose/g
Radioactivity Distribution, Large intestine (15 min): 6.2 ± 0.5 % dose/g
Radioactivity Distribution, Lung (15 min): 3.7 ± 0.2 % dose/g
Radioactivity Distribution, Small intestine (15 min): 5.3 ± 0.6 % dose/g
Radioactivity Distribution, Spleen (15 min): 3.1 ± 0.2 % dose/g
Radioactivity Distribution, Stomach (15 min): 4.9 ± 0.4 % dose/g
Adrenal gland/Blood ratio (30 min): 0.82 ± 0.13
Radioactivity Distribution, Blood (30 min): 4.3 ± 0.4 % dose/g
Radioactivity Distribution, Femur (30 min): 2.7 ± 0.3 % dose/g
Radioactivity Distribution, Heart (30 min): 3.7 ± 0.5 % dose/g
Radioactivity Distribution, Large intestine (30 min): 8.5 ± 0.5 % dose/g
Radioactivity Distribution, Lung (30 min): 3.4 ± 0.2 % dose/g
Radioactivity Distribution, Small intestine (30 min): 5.0 ± 0.9 % dose/g
Radioactivity Distribution, Spleen (30 min): 3.1 ± 0.1 % dose/g
Radioactivity Distribution, Stomach (30 min): 3.5 ± 0.2 % dose/g
Adrenal gland/Blood ratio (60 min): 1.16 ± 0.15
Radioactivity Distribution, Blood (60 min): 3.5 ± 0.5 % dose/g
Radioactivity Distribution, Femur (60 min): 3.4 ± 0.7 % dose/g
Radioactivity Distribution, Heart (60 min): 2.9 ± 0.5 % dose/g
Radioactivity Distribution, Large intestine (60 min): 7.7 ± 1.2 % dose/g
Radioactivity Distribution, Lung (60 min): 2.9 ± 0.4 % dose/g
Radioactivity Distribution, Small intestine (60 min): 3.7 ± 0.7 % dose/g
Radioactivity Distribution, Spleen (60 min): 2.3 ± 0.6 % dose/g
Radioactivity Distribution, Stomach (60 min): 4.3 ± 0.3 % dose/g
Adrenal gland/Blood ratio (120 min): 0.61 ± 0.63
Radioactivity Distribution, Blood (120 min): 2.8 ± 0.2 % dose/g
Radioactivity Distribution, Femur (120 min): 4.5 ± 0.1 % dose/g
Radioactivity Distribution, Heart (120 min): 2.4 ± 0.4 % dose/g
Radioactivity Distribution, Large intestine (120 min): 7.9 ± 0.7 % dose/g
Radioactivity Distribution, Lung (120 min): 2.2 ± 0.2 % dose/g
Radioactivity Distribution, Small intestine (120 min): 2.4 ± 0.1 % dose/g
Radioactivity Distribution, Spleen (120 min): 2.0 ± 0.2 % dose/g
Radioactivity Distribution, Stomach (120 min): 3.5 ± 0.6 % dose/g
Adrenal gland/Kidney ratio (5 min): 1.60 ± 0.50
Radioactivity Distribution, Adrenal gland (5 min): 7.0 ± 2.1 % dose/g
Radioactivity Distribution, Kidney (5 min): 4.4 ± 0.5 % dose/g
Radioactivity Distribution, Liver (5 min): 7.5 ± 0.5 % dose/g
Radioactivity Distribution, Pancreas (5 min): 3.4 ± 0.3 % dose/g
Adrenal gland/Kidney ratio (15 min): 1.11 ± 0.15
Radioactivity Distribution, Adrenal gland (15 min): 3.9 ± 0.8 % dose/g
Radioactivity Distribution, Kidney (15 min): 3.5 ± 0.6 % dose/g
Radioactivity Distribution, Liver (15 min): 6.0 ± 0.4 % dose/g
Radioactivity Distribution, Pancreas (15 min): 2.7 ± 0.2 % dose/g
Adrenal gland/Kidney ratio (30 min): 0.98 ± 0.15
Radioactivity Distribution, Adrenal gland (30 min): 3.5 ± 0.4 % dose/g
Radioactivity Distribution, Kidney (30 min): 3.6 ± 0.4 % dose/g
Radioactivity Distribution, Liver (30 min): 5.7 ± 0.6 % dose/g
Radioactivity Distribution, Pancreas (30 min): 2.6 ± 0.2 % dose/g
Adrenal gland/Kidney ratio (60 min): 1.40 ± 0.34
Radioactivity Distribution, Adrenal gland (60 min): 4.1 ± 1.0 % dose/g
Radioactivity Distribution, Kidney (60 min): 3.0 ± 0.3 % dose/g
Radioactivity Distribution, Liver (60 min): 5.0 ± 0.3 % dose/g
Radioactivity Distribution, Pancreas (60 min): 2.4 ± 0.4 % dose/g
Adrenal gland/Kidney ratio (120 min): 0.58 ± 0.54
Radioactivity Distribution, Adrenal gland (120 min): 2.0 ± 1.5 % dose/g
Radioactivity Distribution, Kidney (120 min): 2.8 ± 0.4 % dose/g
Radioactivity Distribution, Liver (120 min): 4.7 ± 0.6 % dose/g
Radioactivity Distribution, Pancreas (120 min): 1.7 ± 0.2 % dose/g
Adrenal gland/Liver ratio (5 min): 0.95 ± 0.34
Adrenal gland/Liver ratio (15 min): 0.64 ± 0.13
Adrenal gland/Liver ratio (30 min): 0.61 ± 0.12
Adrenal gland/Liver ratio (60 min): 0.82 ± 0.19
Adrenal gland/Liver ratio (120 min): 0.38 ± 0.41
